Results reported in ChEMBL document CHEMBL1201861, “Genomics of Drug Sensitity in Cancer screening data, Wellcome Trust Sanger Institute”.
pIC50: −log10 of the molar value. Where “and” joins values, the source holds several entries; their conditions need not be identical. Equal entries are not always repeated.

Legend:
Experiment in all cases: cells
[1] = system: D283 Med; format: functional, cell-based, Homo sapiens
Description: SANGER: Inhibition of human D-283MED cell growth in a cell viability assay.

[2] = system: MFH-ino; format: functional, cell-based; details: Homo sapiens;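 further: growth inhibition of human MFH-ino cells, read out by a cell viability assay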
Description: SANGER: Inhibition of human MFH-ino cell growth in a cell viability assay.

[3] = system: SBC-5; format: functional, cell-based, Homo sapiens;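 further: cell viability assay read-out, IC50 is the concentration that inhibits growth of the cells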
Description: SANGER: Inhibition of human SBC-5 cell growth in a cell viability assay.

[4] = system: SF-268; format: functional, cell-based, Homo sapiens;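 further: growth inhibition of SF-268 cells determined with a cell viability assay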
[5] = system: CHP-212; format: functional, cell-based, Homo sapiens
Description: SANGER: Inhibition of human CHP-212 cell growth in a cell viability assay.

[6] = system: SW 962; format: functional, cell-based, Homo sapiens;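 further: growth inhibition of human SW962 cells, read out by a cell viability assay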
Description: SANGER: Inhibition of human SW962 cell growth in a cell viability assay.

[7] = system: HLE; format: functional, cell-based, Homo sapiens;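 further: growth inhibition of human HLE cells, read out by a cell viability assay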
Description: SANGER: Inhibition of human HLE cell growth in a cell viability assay.

[8] = system: A388; format: functional, cell-based, Homo sapiens;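 further: growth inhibition of human A388 cells, read out with a cell viability assay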
Description: SANGER: Inhibition of human A388 cell growth in a cell viability assay.

[9] = system: MFE-280; format: functional, cell-based, Homo sapiens;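 further: growth inhibition of MFE-280 cells, determined with a cell viability readout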
Description: SANGER: Inhibition of human MFE-280 cell growth in a cell viability assay.

[10] = system: BHT-101; format: functional, cell-based, Homo sapiens
Description: SANGER: Inhibition of human BHT-101 cell growth in a cell viability assay.

[11] = system: CAL-120; format: functional, cell-based, Homo sapiens;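 further: cell growth inhibition, read out as cell viability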
Description: SANGER: Inhibition of human CAL-120 cell growth in a cell viability assay.

[12] = system: ES3; format: functional, cell-based, Homo sapiens;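 further: growth inhibition of ES3 cells, read out with a cell viability assay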
[13] = system: G-401; format: functional, cell-based, Homo sapiens
Description: SANGER: Inhibition of human G-401 cell growth in a cell viability assay.

[14] = system: QIMR-WIL; format: functional, cell-based; details: Homo sapiens;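 further: growth inhibition of QIMR-WIL cells, read out with a cell viability assay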
Description: SANGER: Inhibition of human QIMR-WIL cell growth in a cell viability assay.

[15] = system: HH; format: functional, cell-based; details: Homo sapiens
Description: SANGER: Inhibition of human HH cell growth in a cell viability assay.

[16] = system: TGBC1TKB; format: functional, cell-based, Homo sapiens;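 further: growth inhibition of TGBC1TKB cells, read out by a cell viability assay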
Description: SANGER: Inhibition of human TGBC1TKB cell growth in a cell viability assay.

[17] = system: EW-1; format: functional, cell-based, Homo sapiens;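 further: growth inhibition of the human EW-1 cell line, read out by a cell viability assay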
Description: SANGER: Inhibition of human EW-1 cell growth in a cell viability assay.

[18] = system: NB17; format: functional, cell-based; details: Homo sapiens;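 further: growth inhibition of NB17 cells, read out with a cell viability assay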
Description: SANGER: Inhibition of human NB17 cell growth in a cell viability assay.

[19] = system: HT-3; format: functional, cell-based, Homo sapiens;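 further: growth inhibition measured with a cell viability readout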
Description: SANGER: Inhibition of human HT-3 cell growth in a cell viability assay.

[20] = system: TYK-nu; format: functional, cell-based, Homo sapiens;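 further: growth inhibition of human TYK-nu cells, read out by a cell viability assay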
Description: SANGER: Inhibition of human TYK-nu cell growth in a cell viability assay.

[21] = system: LC-2-ad; format: functional, cell-based, Homo sapiens;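 further: growth inhibition of human LC-2-ad cells, read out with a cell viability assay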
Description: SANGER: Inhibition of human LC-2-ad cell growth in a cell viability assay.

[22] = system: A498; format: functional, cell-based, Homo sapiens;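 further: growth inhibition of human A498 cells, read out with a cell viability assay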
Description: SANGER: Inhibition of human A498 cell growth in a cell viability assay.

[23] = system: 786-0; format: functional, cell-based, Homo sapiens
Description: SANGER: Inhibition of human 786-0 cell growth in a cell viability assay.

[24] = system: K562; format: functional, cell-based; details: Homo sapiens
Description: SANGER: Inhibition of human K-562 cell growth in a cell viability assay.

[25] = system: PANC-03-27; format: functional, cell-based, Homo sapiens
Description: SANGER: Inhibition of human PANC-03-27 cell growth in a cell viability assay.

[26] = system: A4-Fuk; format: functional, cell-based; details: Homo sapiens;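 further: growth inhibition of A4-Fuk cells, read out by a cell viability assay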
Description: SANGER: Inhibition of human A4-Fuk cell growth in a cell viability assay.

[27] = system: SKG-IIIa; format: functional, cell-based, Homo sapiens;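 further: cell growth inhibition, read out with a cell viability assay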
Description: SANGER: Inhibition of human SKG-IIIa cell growth in a cell viability assay.

[28] = system: Hs-578T; format: functional, cell-based, Homo sapiens
Description: SANGER: Inhibition of human Hs-578-T cell growth in a cell viability assay.

[29] = system: IGR-1; format: functional, cell-based, Homo sapiens;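 further: growth inhibition of human IGR-1 cells, read out with a cell viability assay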
Description: SANGER: Inhibition of human IGR-1 cell growth in a cell viability assay.

[30] = system: SF-126; format: functional, cell-based, Homo sapiens;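 further: growth inhibition of human SF126 cells, read out with a cell viability assay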
Description: SANGER: Inhibition of human SF126 cell growth in a cell viability assay.

[31] = system: NB10; format: functional, cell-based, Homo sapiens;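 further: growth inhibition of NB10 cells, read out by a cell viability assay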
Description: SANGER: Inhibition of human NB10 cell growth in a cell viability assay.

[32] = system: G-402; format: functional, cell-based, Homo sapiens
Description: SANGER: Inhibition of human G-402 cell growth in a cell viability assay.

[33] = system: HAL-01; format: functional, cell-based; details: Homo sapiens;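 further: growth inhibition of human HAL-01 cells, read out with a cell viability assay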
Description: SANGER: Inhibition of human HAL-01 cell growth in a cell viability assay.

[34] = system: NCI-H2405; format: functional, cell-based, Homo sapiens;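 further: growth inhibition of the human cell line, read out with a cell viability assay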
Description: SANGER: Inhibition of human NCI-H2405 cell growth in a cell viability assay.

[35] = system: EFO-21; format: functional, cell-based, Homo sapiens;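 further: growth inhibition of EFO-21 cells measured with a viability assay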
Description: SANGER: Inhibition of human EFO-21 cell growth in a cell viability assay.

[36] = system: ME-180; format: functional, cell-based; details: Homo sapiens;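 further: cell viability assay measuring growth inhibition of ME-180 cells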
Description: SANGER: Inhibition of human ME-180 cell growth in a cell viability assay.

[37] = system: ES4; format: functional, cell-based, Homo sapiens;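 further: growth inhibition of human ES4 cells, read out by a cell viability assay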
Description: SANGER: Inhibition of human ES4 cell growth in a cell viability assay.

[38] = system: BFTC-905; format: functional, cell-based, Homo sapiens
Description: SANGER: Inhibition of human BFTC-905 cell growth in a cell viability assay.

[39] = system: NCI-H82; format: functional, cell-based; details: Homo sapiens;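 further: growth inhibition of NCI-H82 cells, measured with a cell viability readout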
Description: SANGER: Inhibition of human NCI-H82 cell growth in a cell viability assay.

[40] = system: SW-620; format: functional, cell-based, Homo sapiens;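 further: growth inhibition of human SW-620 cells, measured by a cell viability assay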
Description: SANGER: Inhibition of human SW620 cell growth in a cell viability assay.

[41] = system: NCI-H441; format: functional, cell-based; details: Homo sapiens;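 further: growth inhibition of NCI-H441 cells, read out with a cell viability assay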
Description: SANGER: Inhibition of human NCI-H441 cell growth in a cell viability assay.

[42] = system: C2BBe1; format: functional, cell-based, Homo sapiens;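 further: growth inhibition of C2BBe1 cells, read out through a viability assay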
Description: SANGER: Inhibition of human C2BBe1 cell growth in a cell viability assay.

[43] = system: NH-12; format: functional, cell-based, Homo sapiens;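 further: growth inhibition of NH-12 cells, read out with a cell viability assay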
Description: SANGER: Inhibition of human NH-12 cell growth in a cell viability assay.

[44] = system: CWR22R; format: functional, cell-based, Homo sapiens;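 further: growth inhibition of 22Rv1 cells, read out with a cell viability assay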
Description: SANGER: Inhibition of human 22RV1 cell growth in a cell viability assay.

[45] = system: MKN-45; format: functional, cell-based, Homo sapiens;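 further: growth inhibition of human MKN-45 cells, measured with a cell viability assay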
Description: SANGER: Inhibition of human MKN45 cell growth in a cell viability assay.

[46] = system: SN12C; format: functional, cell-based, Homo sapiens;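 further: growth inhibition of human SN12C cells, measured by a cell viability assay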
Description: SANGER: Inhibition of human SN12C cell growth in a cell viability assay.

[47] = system: SW 954; format: functional, cell-based, Homo sapiens;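 further: growth inhibition of SW954 human cancer cells, read out as cell viability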
Description: SANGER: Inhibition of human SW954 cell growth in a cell viability assay.

[48] = system: FTC-133; format: functional, cell-based, Homo sapiens
[49] = system: TE-6; format: functional, cell-based, Homo sapiens;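 further: growth inhibition of TE-6 cells, read out with a cell viability assay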
Description: SANGER: Inhibition of human TE-6 cell growth in a cell viability assay.

[50] = system: MG-63; format: functional, cell-based, Homo sapiens;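 further: growth inhibition of human MG-63 cells, read out with a cell viability assay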
Description: SANGER: Inhibition of human MG-63 cell growth in a cell viability assay.

[51] = system: NB5; format: functional, cell-based, Homo sapiens;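 further: growth inhibition of NB5 cells, read out as cell viability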
Description: SANGER: Inhibition of human NB5 cell growth in a cell viability assay.

[52] = system: VMRC-RCZ; format: functional, cell-based; details: Homo sapiens;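 further: growth inhibition measured with a cell viability assay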
Description: SANGER: Inhibition of human VMRC-RCZ cell growth in a cell viability assay.

Structure (SMILES): Cc1cc([C@@H](C)Nc2ccccc2C(=O)O)c2nc(N3CCOCC3)cc(=O)n2c1 [AZD-6482]
- pIC50 ([1]; d283 med): < 5.29
- pIC50 [2]: < 5.29
- pIC50 ([3]; Homo sapiens, SBC-5): < 5.29
- pIC50 ([3]; sbc-5): < 5.29
- pIC50 ([4]; sf-268): < 5.29
- pIC50 ([5]; chp-212): < 5.29
- pIC50 ([6]; sw 962): < 5.29 and 5.82
- pIC50 ([7]; hle): < 5.29
- pIC50 ([8]; a388): < 5.29
- pIC50 ([9]; mfe-280): < 5.29
- pIC50 ([10]; bht-101): < 5.29 and 5.94
- pIC50 ([11]; cal-120): < 5.29
- pIC50 ([12]; Homo sapiens, ES3): < 5.29
- pIC50 ([12]; es3): < 5.29
- pIC50 ([13]; g-401): 5.39 and < 5.29
- pIC50 [14]: 5.40
- pIC50 [15]: 6.02
- pIC50 ([16]; tgbc1tkb): < 5.29
- pIC50 ([17]; ew-1): < 5.29
- pIC50 [18]: < 5.29
- pIC50 ([19]; ht-3): < 5.29
- pIC50 ([20]; tyk-nu): < 5.29
- pIC50 ([21]; lc-2-ad): < 5.29
- pIC50 ([22]; a498): 6.93 and 6.34
- pIC50 [23]: 5.70
- pIC50 ([23]; Homo sapiens): 5.88
- pIC50 [24]: < 5.29
- pIC50 ([25]; Homo sapiens, PANC-03-27): < 5.29
- pIC50 ([25]; panc-03-27): 5.36
- pIC50 [26]: 5.51
- pIC50 ([27]; skg-iiia): < 5.29
- pIC50 ([28]; hs-578-t): < 5.29 and 5.46
- pIC50 ([29]; igr-1): < 5.29
- pIC50 ([30]; sf-126): 5.35 and < 5.29
- pIC50 ([31]; Homo sapiens, NB10): < 5.29
- pIC50 ([31]; nb10): < 5.29
- pIC50 ([32]; g-402): 5.49 and < 5.29
- pIC50 [33]: 5.89
- pIC50 ([34]; nci-h2405): < 5.29
- pIC50 ([35]; efo-21): 5.30 and < 5.29
- pIC50 [36]: < 5.29
- pIC50 ([37]; es4): < 5.29
- pIC50 ([38]; bftc-905): < 5.29 and 5.38
- pIC50 [39]: < 5.29
- pIC50 ([40]; sw-620): < 5.29
- pIC50 [41]: < 5.29
- pIC50 ([42]; Homo sapiens, C2BBe1): < 5.29
- pIC50 ([42]; c2bbe1): < 5.29
- pIC50 ([43]; Homo sapiens, NH-12): < 5.29
- pIC50 ([43]; nh-12): < 5.29
- pIC50 ([44]; Homo sapiens, 22Rv1): < 5.29
- pIC50 ([44]; cwr22r): < 5.29
- pIC50 ([45]; Homo sapiens, MKN-45): < 5.29
- pIC50 ([45]; mkn-45): < 5.29
- pIC50 ([46]; sn12c): < 5.29
- pIC50 ([47]; sw 954): 5.35 and < 5.29
- pIC50 ([48]; ftc-133): < 5.29
- pIC50 ([49]; te-6): < 5.29
- pIC50 ([50]; mg-63): < 5.29 and 5.80
- pIC50 ([51]; nb5): < 5.29

Structure (SMILES): COc1ccc(-c2ccc3c(N4CCOC[C@@H]4C)nc(N4CCOC[C@@H]4C)nc3n2)cc1CO [AZD-8055]
- pIC50 ([1]; Homo sapiens, D283 Med): 6.83
- pIC50 ([3]; Homo sapiens, SBC-5): 5.81
- pIC50 ([4]; Homo sapiens, SF-268): < 5.70
- pIC50 ([5]; Homo sapiens, CHP-212): 6.36
- pIC50 ([6]; Homo sapiens, SW 962): 6.33
- pIC50 ([7]; Homo sapiens, HLE): 6.13
- pIC50 ([8]; Homo sapiens, A388): < 5.70
- pIC50 ([9]; Homo sapiens, MFE-280): 6.37
- pIC50 ([10]; Homo sapiens, BHT-101): 6.39
- pIC50 ([11]; Homo sapiens, CAL-120): 6.07
- pIC50 ([12]; Homo sapiens, ES3): 5.95
- pIC50 ([13]; Homo sapiens, G-401): 6.51
- pIC50 [14]: 6.35
- pIC50 [15]: 7.10
- pIC50 ([16]; Homo sapiens, TGBC1TKB): 5.88
- pIC50 ([17]; Homo sapiens, EW-1): 5.79
- pIC50 [18]: < 5.70
- pIC50 ([19]; Homo sapiens, HT-3): 5.78
- pIC50 ([20]; Homo sapiens, TYK-nu): 6.50
- pIC50 ([21]; Homo sapiens, LC-2-ad): 6.66
- pIC50 ([22]; Homo sapiens, A498): < 5.70
- pIC50 ([23]; Homo sapiens): 5.96
- pIC50 [24]: < 5.70
- pIC50 [52]: 6.11
- pIC50 ([25]; Homo sapiens, PANC-03-27): 5.99
- pIC50 [26]: 5.92
- pIC50 ([27]; Homo sapiens, SKG-IIIa): 5.88
- pIC50 ([28]; Homo sapiens, Hs-578T): 6.22
- pIC50 ([29]; Homo sapiens, IGR-1): < 5.70
- pIC50 ([30]; Homo sapiens, SF-126): 6.05
- pIC50 ([31]; Homo sapiens, NB10): < 5.70
- pIC50 ([32]; Homo sapiens, G-402): 7.00
- pIC50 [33]: 6.69
- pIC50 ([34]; Homo sapiens, NCI-H2405): 5.94
- pIC50 ([35]; Homo sapiens, EFO-21): < 5.70
- pIC50 [36]: 6.83
- pIC50 ([37]; Homo sapiens, ES4): 6.34
- pIC50 ([38]; Homo sapiens, BFTC-905): 6.21
- pIC50 [39]: < 5.70
- pIC50 ([40]; Homo sapiens, SW-620): < 5.70
- pIC50 [41]: < 5.70
- pIC50 ([42]; Homo sapiens, C2BBe1): 5.93
- pIC50 ([43]; Homo sapiens, NH-12): 5.95
- pIC50 ([44]; Homo sapiens, 22Rv1): 6.15
- pIC50 ([46]; Homo sapiens, SN12C): 6.09
- pIC50 ([47]; Homo sapiens, SW 954): < 5.70
- pIC50 ([48]; Homo sapiens, FTC-133): < 5.70
- pIC50 ([49]; Homo sapiens, TE-6): 5.77
- pIC50 ([50]; Homo sapiens, MG-63): 6.56
- pIC50 ([51]; Homo sapiens, NB5): 6.15

Structure (SMILES): CCC(=O)N1CCN(c2ccc(-n3c(=O)ccc4cnc5ccc(-c6cnc7ccccc7c6)cc5c43)cc2C(F)(F)F)CC1 [TORIN1]
- pIC50 ([1]; Homo sapiens, D283 Med): < 5.92
- pIC50 [2]: 7.55
- pIC50 ([4]; Homo sapiens, SF-268): 7.01
- pIC50 ([6]; Homo sapiens, SW 962): 7.24
- pIC50 ([8]; Homo sapiens, A388): 7.16
- pIC50 ([12]; Homo sapiens, ES3): < 5.92
- pIC50 [14]: 7.09
- pIC50 [15]: 6.87
- pIC50 ([16]; Homo sapiens, TGBC1TKB): 8.42
- pIC50 ([17]; Homo sapiens, EW-1): 8.13
- pIC50 [18]: 6.93
- pIC50 ([21]; Homo sapiens, LC-2-ad): 7.67
- pIC50 ([22]; Homo sapiens, A498): < 5.92
- pIC50 [24]: 7.04
- pIC50 [26]: 7.88
- pIC50 ([30]; Homo sapiens, SF-126): 7.36
- pIC50 ([31]; Homo sapiens, NB10): < 5.92
- pIC50 [33]: 7.12
- pIC50 ([37]; Homo sapiens, ES4): 7.08
- pIC50 [39]: 6.85
- pIC50 ([42]; Homo sapiens, C2BBe1): 6.86
- pIC50 ([43]; Homo sapiens, NH-12): < 5.92
- pIC50 ([47]; Homo sapiens, SW 954): 7.42
- pIC50 ([49]; Homo sapiens, TE-6): 6.17
- pIC50 ([51]; Homo sapiens, NB5): 7.02

Structure (SMILES): Cc1cc(Nc2cc(N3CCN(C)CC3)nc(Sc3ccc(NC(=O)C4CC4)cc3)n2)n[nH]1 [TOZASERTIB]
- pIC50 ([1]; Homo sapiens, D283 Med): < 5.70
- pIC50 [2]: 8.00
- pIC50 ([4]; Homo sapiens, SF-268): < 5.70
- pIC50 ([6]; Homo sapiens, SW 962): < 5.70
- pIC50 ([8]; Homo sapiens, A388): 6.47
- pIC50 ([12]; Homo sapiens, ES3): < 5.70
- pIC50 [14]: 6.37
- pIC50 [15]: < 5.70
- pIC50 ([16]; Homo sapiens, TGBC1TKB): < 5.70
- pIC50 ([17]; Homo sapiens, EW-1): 5.93
- pIC50 [18]: < 5.70
- pIC50 ([21]; Homo sapiens, LC-2-ad): 7.06
- pIC50 ([22]; Homo sapiens, A498): < 5.70
- pIC50 [24]: 6.36
- pIC50 [26]: 6.94
- pIC50 ([30]; Homo sapiens, SF-126): 6.02
- pIC50 ([31]; Homo sapiens, NB10): < 5.70
- pIC50 [33]: 5.93
- pIC50 ([37]; Homo sapiens, ES4): 6.04
- pIC50 [39]: < 5.70
- pIC50 ([42]; Homo sapiens, C2BBe1): < 5.70
- pIC50 ([43]; Homo sapiens, NH-12): < 5.70
- pIC50 ([47]; Homo sapiens, SW 954): 6.91
- pIC50 ([49]; Homo sapiens, TE-6): < 5.70
- pIC50 ([51]; Homo sapiens, NB5): 5.78
